Experimental data taken from ChEMBL document CHEMBL4177539, “Discovery of N-((3R,4R)-4-Fluoro-1-(6-((3-methoxy-1-methyl-1H-pyrazol-4-yl)amino)-9-methyl-9H-purin-2-yl)pyrrolidine-3-yl)acrylamide (PF-06747775) through Structure-Based Drug Design: A High Affinity Irreversible Inhibitor Targeting Oncogenic EGFR Mutants with Selectivity over Wild-Type EGFR” (J Med Chem, 2017).
Activity calls are given as the source filed them. The rule behind the calls is not given here.

Columns and labels:
[1] = Oral bioavailability in Wistar Han rat at 30 mg/kg administered as single dose; assay type: ADME, organism-based; details: in vivo
Rattus norvegicus [2] = assay: Toxicity in rat assessed as body weight loss administered as repeated dosing for 91 days; assay type: organism-based; details: in vivo, 2184 h
Canis familiaris [3] = assay: Toxicity in dog assessed as body weight loss administered as repeated dosing for 91 days; assay type: organism-based, Canis lupus familiaris; details: in vivo, 2184 h
[4] = Apparent intrinsic clearance in mouse microsomes; assay type: ADME, Microsome; details: read-out: CL(app)
CYP2C8 = CYP2C8 (Homo sapiens, UniProt P10632); assay: Inhibition of human CYP2C8 at 10 uM; assay type: ADME
[5] = Drug metabolism in human hepatocytes assessed as demethylation; assay type: ADME, cell-based, Hepatocyte
[6] = Apparent intrinsic clearance in human hepatocytes; assay type: ADME, cell-based, Hepatocyte; details: read-out: CLH(app)
Canis familiaris [7] = assay: Toxicity in dog assessed as effect on heart rate administered as repeated dosing; assay type: organism-based, Canis lupus familiaris; details: in vivo
[8] = Volume of distribution at steady state in Nu/Nu mouse at 1 mg/kg, iv administered as single dose; assay type: ADME, organism-based; details: in vivo, read-out: Vdss
[9] = molecular target: Tyrosine-protein kinase Fer (Homo sapiens) (UniProt P16591); assay: Inhibition of GST-tagged recombinant human FER catalytic domain (541 to 822 residues) expressed in Baculovirus expression system at 1 uM by FRET-based Z'-LYTE assay
Sequence of Tyrosine-protein kinase Fer (Homo sapiens) (P16591 whole entry, looked up, the tested form may be a part): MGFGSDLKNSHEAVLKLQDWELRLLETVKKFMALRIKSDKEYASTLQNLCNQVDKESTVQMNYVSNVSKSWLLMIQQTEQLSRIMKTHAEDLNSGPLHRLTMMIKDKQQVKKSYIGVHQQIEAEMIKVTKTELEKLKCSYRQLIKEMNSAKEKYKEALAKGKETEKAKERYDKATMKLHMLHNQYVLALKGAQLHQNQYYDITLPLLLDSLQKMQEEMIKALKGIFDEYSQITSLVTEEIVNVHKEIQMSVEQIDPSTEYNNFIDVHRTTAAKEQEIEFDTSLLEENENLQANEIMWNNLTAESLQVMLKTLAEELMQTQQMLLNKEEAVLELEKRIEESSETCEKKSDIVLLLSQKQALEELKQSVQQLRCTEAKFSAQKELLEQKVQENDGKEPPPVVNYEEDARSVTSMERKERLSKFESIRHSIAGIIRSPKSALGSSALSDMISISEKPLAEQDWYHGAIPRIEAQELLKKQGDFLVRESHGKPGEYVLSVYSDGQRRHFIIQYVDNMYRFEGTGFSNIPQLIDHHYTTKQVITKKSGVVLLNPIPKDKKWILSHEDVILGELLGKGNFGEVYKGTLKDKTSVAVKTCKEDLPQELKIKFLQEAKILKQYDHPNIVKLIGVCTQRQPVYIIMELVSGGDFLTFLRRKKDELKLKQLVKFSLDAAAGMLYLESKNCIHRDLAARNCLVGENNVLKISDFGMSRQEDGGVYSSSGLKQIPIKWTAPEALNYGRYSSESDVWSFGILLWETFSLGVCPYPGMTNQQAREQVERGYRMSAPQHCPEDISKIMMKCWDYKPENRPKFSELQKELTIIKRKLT

[10] = molecular target: Tyrosine-protein kinase JAK3 (Homo sapiens) (UniProt P52333); assay: Inhibition of JAK3 (unknown origin) at 1 uM by cell based assay
Sequence of Tyrosine-protein kinase JAK3 (Homo sapiens) (P52333 whole entry): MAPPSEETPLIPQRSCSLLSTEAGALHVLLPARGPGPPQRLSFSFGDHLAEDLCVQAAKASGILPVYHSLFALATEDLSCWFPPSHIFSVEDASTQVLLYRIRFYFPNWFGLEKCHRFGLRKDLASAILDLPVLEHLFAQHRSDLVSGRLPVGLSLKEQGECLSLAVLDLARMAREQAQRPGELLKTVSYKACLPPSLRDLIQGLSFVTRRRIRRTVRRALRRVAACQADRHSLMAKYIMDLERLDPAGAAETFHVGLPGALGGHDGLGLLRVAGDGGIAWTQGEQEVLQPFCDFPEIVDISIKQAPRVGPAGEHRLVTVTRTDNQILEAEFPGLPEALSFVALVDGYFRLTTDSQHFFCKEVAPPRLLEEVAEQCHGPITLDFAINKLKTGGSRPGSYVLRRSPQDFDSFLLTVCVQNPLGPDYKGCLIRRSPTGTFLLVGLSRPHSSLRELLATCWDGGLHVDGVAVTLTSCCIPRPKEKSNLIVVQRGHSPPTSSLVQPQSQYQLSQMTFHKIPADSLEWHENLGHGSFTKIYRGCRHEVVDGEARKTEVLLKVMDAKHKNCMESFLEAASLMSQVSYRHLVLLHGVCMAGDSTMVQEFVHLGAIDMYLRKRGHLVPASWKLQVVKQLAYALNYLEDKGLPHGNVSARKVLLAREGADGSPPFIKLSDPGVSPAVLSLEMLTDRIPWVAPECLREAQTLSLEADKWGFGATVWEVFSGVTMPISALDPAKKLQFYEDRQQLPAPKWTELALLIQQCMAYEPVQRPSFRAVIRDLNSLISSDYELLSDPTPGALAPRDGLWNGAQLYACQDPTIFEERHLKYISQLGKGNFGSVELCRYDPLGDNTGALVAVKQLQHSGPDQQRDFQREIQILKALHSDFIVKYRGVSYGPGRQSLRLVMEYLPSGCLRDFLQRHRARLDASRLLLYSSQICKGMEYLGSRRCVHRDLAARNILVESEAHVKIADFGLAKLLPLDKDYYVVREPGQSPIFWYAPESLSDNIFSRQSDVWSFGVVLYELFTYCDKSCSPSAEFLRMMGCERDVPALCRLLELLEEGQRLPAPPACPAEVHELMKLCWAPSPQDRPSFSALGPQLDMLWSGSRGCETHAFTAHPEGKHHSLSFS

[11] = Half life in Sprague-Dawley rat blood at 1 uM by LC-MS/MS analysis; assay type: ADME, tissue-based
[12] = Half life in Beagle dog blood at 1 uM by LC-MS/MS analysis; assay type: ADME, tissue-based, Canis lupus familiaris
[13] = molecular target: Cytoplasmic tyrosine-protein kinase BMX (Homo sapiens) (UniProt P51813); assay: Inhibition of His-tagged full-length recombinant human BMX cytoplasmic domain expressed in Baculovirus expression system at 1 uM by FRET-based Z'-LYTE assay
Sequence of Cytoplasmic tyrosine-protein kinase BMX (Homo sapiens) (P51813 whole entry, the tested form may be a part): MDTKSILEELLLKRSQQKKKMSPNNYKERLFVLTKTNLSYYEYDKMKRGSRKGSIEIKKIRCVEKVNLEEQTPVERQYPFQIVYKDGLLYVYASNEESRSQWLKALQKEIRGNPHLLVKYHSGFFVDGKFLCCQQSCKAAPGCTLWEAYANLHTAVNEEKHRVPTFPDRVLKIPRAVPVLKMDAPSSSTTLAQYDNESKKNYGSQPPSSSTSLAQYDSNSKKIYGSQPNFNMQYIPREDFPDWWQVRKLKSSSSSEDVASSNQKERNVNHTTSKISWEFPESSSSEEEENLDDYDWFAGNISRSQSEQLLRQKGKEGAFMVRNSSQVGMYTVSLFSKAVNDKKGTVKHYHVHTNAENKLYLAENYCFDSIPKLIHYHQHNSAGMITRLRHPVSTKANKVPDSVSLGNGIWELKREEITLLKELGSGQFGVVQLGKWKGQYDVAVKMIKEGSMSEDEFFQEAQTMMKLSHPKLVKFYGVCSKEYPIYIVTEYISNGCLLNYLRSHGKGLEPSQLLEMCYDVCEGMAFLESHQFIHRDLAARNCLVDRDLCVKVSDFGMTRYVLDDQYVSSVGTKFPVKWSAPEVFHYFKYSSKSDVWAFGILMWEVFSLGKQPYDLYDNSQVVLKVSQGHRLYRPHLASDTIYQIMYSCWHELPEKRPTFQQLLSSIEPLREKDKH

Rattus norvegicus [14] = assay: Toxicity in rat assessed as effect on central nervous system functions administered as single dose; assay type: organism-based; details: in vivo
Canis familiaris [15] = assay: Toxicity in dog assessed as effect on blood pressure administered as single dose; assay type: organism-based, Canis lupus familiaris; details: in vivo
[16] = Fraction unbound in rat plasma at 2 uM by LC-MS/MS based equilibrium dialysis method; assay type: ADME, cell-free
[17] = Apparent intrinsic clearance in dog microsomes; assay type: ADME, Canis lupus familiaris, Microsome; details: read-out: CL(app)
[18] = Terminal half life in Nu/Nu mouse at 1 mg/kg, iv administered as single dose; assay type: ADME, organism-based; details: in vivo, read-out: beta t1/2 (converted)
CYP1A2 = CYP1A2 (Homo sapiens, UniProt P05177); assay: Inhibition of human CYP1A2 at 10 uM; assay type: ADME
Sequence of CYP1A2 (P05177 whole entry, the tested form may be a part): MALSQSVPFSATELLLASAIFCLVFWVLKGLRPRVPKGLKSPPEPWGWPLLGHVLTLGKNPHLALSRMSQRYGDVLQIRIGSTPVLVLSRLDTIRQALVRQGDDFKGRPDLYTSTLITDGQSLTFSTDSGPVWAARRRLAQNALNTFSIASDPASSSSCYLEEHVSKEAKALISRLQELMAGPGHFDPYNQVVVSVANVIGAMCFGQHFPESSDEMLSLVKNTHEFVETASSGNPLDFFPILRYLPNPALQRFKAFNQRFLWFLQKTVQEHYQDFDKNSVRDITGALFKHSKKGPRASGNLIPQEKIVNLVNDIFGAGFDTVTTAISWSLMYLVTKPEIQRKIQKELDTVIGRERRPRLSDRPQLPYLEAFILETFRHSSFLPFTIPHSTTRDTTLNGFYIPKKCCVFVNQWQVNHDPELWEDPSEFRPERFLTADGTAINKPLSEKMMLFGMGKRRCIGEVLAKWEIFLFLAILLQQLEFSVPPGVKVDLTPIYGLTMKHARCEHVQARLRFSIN

[19] = molecular target: Activated CDC42 kinase 1 (Homo sapiens) (UniProt Q07912); assay: Inhibition of GST-tagged recombinant human ACK catalytic domain (110 to 476 residues) expressed in Baculovirus expression system at 1 uM by FRET-based Z'-LYTE assay
Sequence of Activated CDC42 kinase 1 (Homo sapiens) (Q07912 whole entry, looked up, the tested form may be a part): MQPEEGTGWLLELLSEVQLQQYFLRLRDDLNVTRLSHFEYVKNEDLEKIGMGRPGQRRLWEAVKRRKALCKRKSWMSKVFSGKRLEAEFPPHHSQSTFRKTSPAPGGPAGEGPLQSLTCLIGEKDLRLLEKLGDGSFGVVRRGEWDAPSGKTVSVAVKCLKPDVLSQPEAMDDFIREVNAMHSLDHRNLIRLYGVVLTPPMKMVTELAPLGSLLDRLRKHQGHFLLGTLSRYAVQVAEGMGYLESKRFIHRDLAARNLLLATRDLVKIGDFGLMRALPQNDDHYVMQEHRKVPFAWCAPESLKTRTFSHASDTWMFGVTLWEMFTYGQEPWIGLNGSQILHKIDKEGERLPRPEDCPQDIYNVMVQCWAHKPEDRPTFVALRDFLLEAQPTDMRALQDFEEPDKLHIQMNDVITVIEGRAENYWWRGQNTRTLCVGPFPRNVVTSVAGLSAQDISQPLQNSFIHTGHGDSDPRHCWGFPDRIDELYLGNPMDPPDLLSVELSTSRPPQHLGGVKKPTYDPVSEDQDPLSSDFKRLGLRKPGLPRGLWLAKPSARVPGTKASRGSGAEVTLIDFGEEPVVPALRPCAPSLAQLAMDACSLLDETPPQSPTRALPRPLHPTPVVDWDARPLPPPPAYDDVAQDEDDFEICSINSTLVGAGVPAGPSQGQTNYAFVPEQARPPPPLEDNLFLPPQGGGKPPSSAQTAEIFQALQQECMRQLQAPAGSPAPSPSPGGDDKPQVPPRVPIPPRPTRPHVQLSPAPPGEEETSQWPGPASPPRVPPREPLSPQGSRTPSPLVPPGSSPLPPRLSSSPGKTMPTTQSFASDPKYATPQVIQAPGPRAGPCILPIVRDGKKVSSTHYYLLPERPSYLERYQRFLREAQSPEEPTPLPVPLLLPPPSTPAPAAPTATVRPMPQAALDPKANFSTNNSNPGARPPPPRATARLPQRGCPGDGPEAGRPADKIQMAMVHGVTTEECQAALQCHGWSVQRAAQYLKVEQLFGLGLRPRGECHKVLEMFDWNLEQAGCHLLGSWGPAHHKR

[20] = Time-dependent inhibition of CYP450 (unknown origin); assay type: ADME; details: human
CYP3A4 = CYP3A4 (Homo sapiens, UniProt P08684); assay: Inhibition of human CYP3A4 at 10 uM; assay type: ADME
Sequence of CYP3A4 (P08684 whole entry): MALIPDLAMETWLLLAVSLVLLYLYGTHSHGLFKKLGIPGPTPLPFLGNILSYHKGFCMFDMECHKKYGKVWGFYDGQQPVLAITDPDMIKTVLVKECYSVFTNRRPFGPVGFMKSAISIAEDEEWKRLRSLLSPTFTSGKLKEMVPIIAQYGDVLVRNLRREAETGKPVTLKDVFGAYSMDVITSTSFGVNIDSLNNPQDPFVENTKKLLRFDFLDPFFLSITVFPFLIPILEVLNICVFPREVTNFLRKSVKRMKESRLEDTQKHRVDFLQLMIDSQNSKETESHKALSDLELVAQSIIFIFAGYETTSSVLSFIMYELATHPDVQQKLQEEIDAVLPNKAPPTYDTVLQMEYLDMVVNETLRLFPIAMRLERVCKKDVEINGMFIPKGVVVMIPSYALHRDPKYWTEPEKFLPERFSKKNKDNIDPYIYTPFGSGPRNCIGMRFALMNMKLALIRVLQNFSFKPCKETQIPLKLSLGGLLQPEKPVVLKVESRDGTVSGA

physchem = details: octanol/water
[21] = Clearance in Nu/Nu mouse plasma at 1 mg/kg, iv administered as single dose; assay type: ADME, organism-based
[22] = Apparent intrinsic clearance in human microsomes; assay type: ADME, Microsome; details: read-out: CL(app)
[23] = Apparent intrinsic hepatic clearance in mouse hepatocytes; assay type: ADME, cell-based, Hepatocyte; details: read-out: CLH(app)
[24] = molecular target: Tyrosine-protein kinase Tec (Homo sapiens) (UniProt P42680); assay: Inhibition of His-tagged full-length recombinant human TEC cytoplasmic domain expressed in Baculovirus expression system at 1 uM by FRET-based Z'-LYTE assay
Canis familiaris [25] = assay: Toxicity in dog assessed as effect on central nervous system functions administered as repeated dosing; assay type: organism-based, Canis lupus familiaris; details: in vivo
Rattus norvegicus [26] = assay: Toxicity in rat assessed as effect on heart rate administered as single dose; assay type: organism-based; details: in vivo
[27] = Fraction unbound in mouse plasma at 2 uM by LC-MS/MS based equilibrium dialysis method; assay type: ADME, cell-free
[28] = Half life in CD-1 mouse blood at 1 uM by LC-MS/MS analysis; assay type: ADME, tissue-based
Canis familiaris [29] = assay: Toxicity in dog assessed as effect on blood pressure administered as repeated dosing; assay type: organism-based, Canis lupus familiaris; details: in vivo
Canis familiaris [30] = assay: Toxicity in dog assessed as electrocardiogram changes administered as repeated dosing; assay type: organism-based, Canis lupus familiaris; details: in vivo
[31] = Clearance in Beagle dog plasma at 1 mg/kg, iv administered as single dose; assay type: ADME, organism-based, Canis lupus familiaris
[32] = Fraction unbound in dog plasma at 2 uM by LC-MS/MS based equilibrium dialysis method; assay type: ADME, cell-free, Canis lupus familiaris
[33] = Volume of distribution at steady state in Beagle dog at 1 mg/kg, iv administered as single dose; assay type: ADME, organism-based, Canis lupus familiaris; details: in vivo, read-out: Vdss
Rattus norvegicus [34] = assay: Toxicity in rat assessed as effect on blood pressure administered as single dose; assay type: organism-based; details: in vivo

- bioavailability [1]: 11%
- CLint scaled [4]: 4.44 L/h/kg
- inhibition at 10 µM (CYP2C8): < 30%
- Drug metabolism [5]: Metabolite_Detected
- CLint scaled [6]: 0.18 L/h/kg
- Vd [8]: 1.48 L/kg
- inhibition [9]: Active
- inhibition [10]: Active
- half-life at 1 µM [11]: 3.95 h
- half-life at 1 µM [12]: 4.65 h
- inhibition [13]: > 50%
- fraction unbound at 2 µM [16]: 0.22
- CLint scaled [17]: 0.18 L/h/kg
- half-life [18]: 0.56 h
- inhibition at 10 µM (CYP1A2): < 30%
- inhibition [19]: > 50%
- TDI [20]: Not Active
- inhibition at 10 µM (CYP3A4): < 30%
- logD (physchem): 2
- clearance [21]: 3.18 L/h/kg
- CLint scaled [22]: < 0.36 L/h/kg
- CLint scaled [23]: 11.8 L/h/kg
- inhibition [24]: > 50%
- fraction unbound at 2 µM [27]: 0.2 to 0.49
- half-life at 1 µM [28]: 5.1 h
- clearance [31]: 0.72 L/h/kg
- fraction unbound at 2 µM [32]: 0.75
- Vd [33]: 0.94 L/kg
Structure (SMILES): C=CC(=O)N[C@@H]1CN(c2nc(Nc3cn(C)nc3OC)c3ncn(C)c3n2)C[C@H]1F [MAVELERTINIB]
- Activity (Rattus norvegicus [2]): Non-Toxic
- Activity (Canis familiaris [3]): Non-Toxic
- Activity (Canis familiaris [7]): Non-Toxic
- Activity (Rattus norvegicus [14]): Non-Toxic
- Activity (Canis familiaris [15]): Non-Toxic
- Activity (Canis familiaris [25]): Non-Toxic
- Activity (Rattus norvegicus [26]): Non-Toxic
- Activity (Canis familiaris [29]): Non-Toxic
- Activity (Canis familiaris [30]): Non-Toxic
- Activity (Rattus norvegicus [34]): Non-Toxic
